From PubChem BioAssay (NCI)
“And” between values parts separate entries of the source, which are not always exact repeats. Identical values can stand only once.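 These data come from cells grown in 96-well plates and exposed to compound for 48 hours at five concentrations. Abbreviation: GI50, concentration required for 50% inhibition of growth. TGI: concentration producing complete growth inhibition.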

Experiments:
Assay in all cases: inhibition of tumour cell growth, NCI panel, 48 h
DLD-1 colon = system: DLD-1 colon
DMS 114 small cell lung = system: DMS 114 small cell lung
HOP-18 NSCLC = system: HOP-18 NSCLC
KM20L2 colon = system: KM20L2 colon
LXFL 529 NSCLC = system: LXFL 529 NSCLC
M19-MEL melanoma = system: M19-MEL melanoma
RXF-631 renal = system: RXF-631 renal
SNB-78 CNS = system: SNB-78 CNS
XF 498 CNS = system: XF 498 CNS

Compound	TGI (DLD-1 colon) [µM]	TGI (DMS 114 small cell lung) [µM]	TGI (HOP-18 NSCLC) [µM]	TGI (KM20L2 colon) [µM]	TGI (LXFL 529 NSCLC) [µM]	TGI (M19-MEL melanoma) [µM]	TGI (RXF-631 renal) [µM]	TGI (SNB-78 CNS)	TGI (XF 498 CNS)	GI50 (DMS 114 small cell lung)	GI50 (KM20L2 colon) [µM]	GI50 (DLD-1 colon) [µM]	GI50 (HOP-18 NSCLC) [µM]	GI50 (LXFL 529 NSCLC)	GI50 (M19-MEL melanoma) [µM]	GI50 (SNB-78 CNS)	GI50 (XF 498 CNS)	GI50 (RXF-631 renal) [µM]
N#Cc1c(C(N)=O)ncn1Cc1ccccc1	> 100	> 100	> 100	> 100	> 100	> 100	> 100	> 100 µM	> 100 µM									
O=C1CC(c2ccccc2)NCN1 (configuration not stated)	> 100	> 100	> 100	> 100	> 100	> 100		> 100 µM										
CCC12CC[C@H](C#N)N3CCc4c(n(c5ccccc45)C(=O)C1)C32 (some centres not stated)	43.8			35	33.7	73.2	45.1	51.9 µM	36.5 µM									
COc1ccc(/C(Cl)=C(\C=O)c2cc(OC)c(OC)c(OC)c2)cc1OC		85.9	58.4	> 100	> 100	> 100	65.4	88.1 µM										
NC1=NN(c2ccccc2)C(=O)C1C(=O)C(=O)Nc1cccc(C(F)(F)F)c1 (configuration not stated)	> 100	> 100	> 100	> 100	> 100	> 100	> 100	> 100 µM	> 100 µM									
O=C(O/N=C1/CCC/C1=C\c1ccccc1)c1ccccc1	> 100	> 100	> 100	> 100	89.9			> 100 µM										
O[C@H]1[C@H]2[C@H](O)CCCN2C[C@H]1O	> 100	> 100	> 100	> 100	> 100	> 100		> 100 µM	> 100 µM									
CC(=O)[CH-]C(C)=O.CC(=O)[CH-]C(C)=O.CC(=O)[CH-]C(C)=O.[Cl-].[Hf+4]		> 100		> 100						> 100 µM	> 100							
C/C(=N\[N+](C)(C)C)C(c1ccccc1)C1(c2ccccc2)C(c2ccccc2)=C1c1ccccc1 (configuration not stated)	> 100			> 100		> 100		> 100 µM	50.4 µM									
Cn1cc(C(=O)/C(Cl)=C(\Cl)C(=O)O)c2ccccc21	> 100	> 100		> 100		> 100	> 100	> 100 µM	> 100 µM									
CC1=Cc2cc3[n-]c(cc4nc(cc5[n-]c(cc1n2)c(C)c5CCC(=O)O)C(CCC(=O)O)=C4C)cc3C.[Cu+2]	> 93	> 44.9	> 100	> 100	> 100	> 100		> 1 µM and 8.92 µM	> 1 µM and 26.5 µM	> 1 µM and 11.5 µM	> 100	> 42.6	> 100	> 1 µM and 12.4 µM	> 100	> 1 µM and 2.07 µM	> 1 µM and 10.2 µM	
COc1ccc(C(=O)O)c2c(=O)c3ccccc3[nH]c12				> 100	> 100	> 100		> 100 µM	> 100 µM									
CO/C=C/c1cc2c(cc1C(OC)OC)OCO2	> 100	> 100		> 100		> 100	> 100	> 100 µM	84.8 µM									
CCC[CH2][Sn]([CH2]CCC)([O]C(=O)c1cccc(F)c1F)[O][Sn]([CH2]CCC)([CH2]CCC)[O]C(=O)c1cccc(F)c1F	0.744	0.204	1.51	2.1	0.157	0.689	0.398	1.51 µM	0.314 µM	0.0627 µM	0.727	0.182	0.551	0.0222 µM	0.141	0.139 µM	0.173 µM	0.0409
COC1=CC(C)C2C[C@H]3O[C@H](O)C[C@H]4C(C)C(=O)C(O)C([C@@]2(C)C1=O)[C@@]34C (some centres not stated)	> 100	> 100	> 100		> 100	> 100		> 100 µM										
CC(=O)Oc1cc2c(=O)oc3c(OC(C)=O)c(OC(C)=O)c(OC(C)=O)c4c(=O)oc(c1OC(C)=O)c2c34	> 100	58	> 100	> 100	> 100	40.6	78.5	> 100 µM	76.5 µM									
COc1ccc(C2c3cc4c(cc3OC(O)(CO)C2C(=O)O)OCO4)c(OC)c1OC (configuration not stated) (tested in a mixture with another compound)	> 100	> 100	> 100	> 100		> 100		> 100 µM	> 100 µM									
O=C(Nc1ccc(N=Nc2ccccc2)cc1)Sc1ccccc1C(=O)O				> 100	> 100			> 100 µM										
Cc1ccc(C2=NN(C)COC2C(F)(F)F)cc1 (configuration not stated)	> 100	> 100	> 100	> 100	> 100	> 100	> 100	> 100 µM										
CC1CC(C)C(=O)C(C(=O)CC2CC(=O)NC2=O)C1 (configuration not stated)	> 100	> 100	> 100	> 100	> 100	> 100	> 100	> 100 µM	> 100 µM									
O=C(CC1(O)C(=O)Nc2ccccc21)c1ccc(O)cc1O (configuration not stated)	> 100	> 100		> 100	> 100	> 100		> 100 µM	> 100 µM									
C/C=C/CP(=O)(c1ccccc1)c1ccccc1	> 100	> 100	> 100	> 100	> 100	> 100		> 100 µM	> 100 µM									
